Here are results for eight molecules from patent US20070122377A1, “Compositions and methods of treatment” (priority 2003, published 2007).

Data set [1] concerns U937 cells. As to the kind of experiment: IL-10 ELISA in U937 cells, prostaglandins in presence and absence of rolipram (Examples 5 and 6, FIGS. 7 and 8). Format: cell-based, human. As to the method: U 937 cells were grown in RPP (PAA Laboratories) medium with 10% fetal calf serum added (PAA Laboratories). 2×10^6 cells per flask were treated with prostaglandin E2 at 10^−6 Molar or with Rolipram (4×10^−6) for 24 hours. Medium was removed at 20 hours and analysed by ELISA. A capture antibody (Pharmingen) was coated onto 96 well plates and culture medium was added each well. A standard curve was created with recombinant IL-10 protein. After incubation and washing, a biotin labelled monoclonal antibody (Pharmingen) was added and following incubation and washing, peroxidase labelled streptavidin was added. After washing a tetramethyl benzidine substrate was added and colour developed in proportion to IL-10 in the original sample/standard. Colour was read using a plate photometer (Labsystems, Multiskan). Mean concentrations (N=3) in controls with no lipopolysaccharide (LPS) were 38.2 pg/ml and in the presence of LPS (100 nM) they were 43.9 […].
The effect of PGE1, PGE2, 19 hydroxy PGE1 and 19 hydroxy PGE2 on the stimulation of IL-10 in the presence and absence of rolipram was investigated as described above in Example 5. IL-10 levels were measured using an ELISA assay (R&D Ltd, Oxford). Measurement was performed according to the manufacturer's instructions.
(In general: An ELISA detects its analyte on a solid surface through an enzyme-linked reagent.)

In data set [2] the test system is U937 cells. Description: Release of IL-10 protein from U937 monocytes in response to PGE and GMCSF (Example 3, FIG. 4). Format: cell-based, human. As to the method: Cells were treated for 4 hours with the agents indicated below the graph, washed to remove the treatment and incubated for a further 20 hours before the medium was assayed for IL-10. PGE refers to prostaglandin E2, and GM refers to GMCSF.
U937 cells were grown in RPMI (PAA Laboratories) medium with 10% foetal calf serum (PAA Laboratories) added.

In data set [3] the test system is U937 cells. As to the kind of experiment: phosphodiesterase IV-b mRNA in U937 cells (Example 7, FIG. 9). Format: cell-based, human. To be noted: four hours of incubation; PGE 1×10^-6, 19-hydroxy PGE2 5×10^-6. As to the method:
After the incubation (20 hours), cells were pelleted and the mRNA was extracted with Tri-reagent (Sigma, Poole, UK). Total RNA was obtained by addition of chloroform and subsequent isopropanol precipitation. RNA was reverse transcribed with reverse transcriptase (Applied Biosystems) and random hexamers (Applied Biosystems). Probes and primers for IL-10 and IL-12 (p35) were designed using Primer Express (Applied Biosystems) and were as follows:
Template was amplified in a Taqman 7700 machine for 40 cycles using FAM/TAMRA dyes on the probe. The Applied Biosystems kit was used to amplify and detect ribosomal (18S) RNA (using VIC/TAMRA dyes) as an internal control in the same reaction tube. After 40 cycles the Ct (related to cycle number at which signal appears) for the FAM and the 18S (VIC) were recorded and […] relative quantitation was achieved using the formula 2^−ΔΔCt where Δ refers to the difference between the FAM and VIC signal related to an standard comparator included in each run.
The mRNA for phosphodiesterase IV-b was measured as described in Example 5 above. mRNA was extracted after four hours of incubation. The concentration of the PGE was 1×10^−6 and that of the 19-hydroxy PGE2 was 5×10^−6. The following primers and Taqman probe were used for quantitation of PDE IV b mRNA.

In the next data set the test system is PDE. To be noted: non-specific PDE inhibitor; cited from earlier work.
For data set [4], the system named is U937 cells. Description: IL-10 and TNFα mRNA in U937 cells after differentiating agents (Example 9, FIG. 13). Format: cell-based, human. As to the method: U937 (human monocyte cell line) cells were grown in RPMI (PAA Laboratories) medium with 10% fetal calf serum added (PAA Laboratories). Cells were treated with prostaglandin E2 at 10^−6 Molar, Rolipram 10^−6 Molar, Forskolin 50×10^−6 Molar with or without GMCSF at 5 ng/ml for 48 hours. Cells were pelleted and the mRNA was extracted with Tri reagent (Sigma, Poole, UK). Total RNA was obtained by addition of chloroform and subsequent isopropanol precipitation. RNA was reverse transcribed with reverse transcriptase (Applied Biosystems) and random hexamers (Applied Biosystems). Probes and primers for amplification and detection of IL-10 were designed using Primer Express (Applied Biosystems) and are as follows:
As for Example 4 but MRNA for TNFα is also included.
Data is shown as the ratio of IL-10 mRNA/TNFα mRNA. P=PMA=Phorbol myristoyl acetate; F=Fsk=Forskolin g=GMCSF, C=vehicle control.

For the next data set, the system named is type IV PDE. To be noted: cited from earlier work; for IC50: type IV PDE selective inhibitor.
For data set [5] the following is noted: cited from earlier work.

Turning to 19-hydroxy PGE2, the “stimulation of IL-10 in the presence of a PDE inhibitor” value in the data set with U937 cells [1] is reported as “increased strikingly”. In the data set on U937 cells [2], the “stimulation of IL-10 in the presence of GMCSF” value is on record as “increased strikingly”. Moreover, in the data set on U937 cells [3], the “PDE activity / PDE message (phosphodiesterase IV-b mRNA)” value is recorded as “increase”.
In general, IC50 refers to the point on the concentration scale where inhibition reaches its midpoint. In the case of `CC(C)Cn1c(=O)n(C)c(=O)c2[nH]cnc21` [IBMX, 3-isobutyl-1-methylxanthine], in the data set with PDE, the IC50 is 2000 to 50000 nM.
With `CCCCC[C@H](O)/C=C/[C@H]1[C@H](O)CC(=O)[C@@H]1C/C=C\CCCC(=O)O` [PGE, prostaglandin E2], in the data set on U937 cells [1], the “stimulation of IL-10 in the presence of a PDE inhibitor” value was “increased strikingly”. Moreover, in the data set on U937 cells [2], the “stimulation of IL-10 in the presence of GMCSF” value is listed as “increased strikingly”. The “PDE activity / PDE message (phosphodiesterase IV-b mRNA)” value with U937 cells [3] is “increase”.
Consider `CCCCCCCCCCCCCC(=O)O[C@@H]1[C@@H](C)[C@@]2(O)[C@@H](C=C(CO)C[C@]3(O)C(=O)C(C)=C[C@@H]23)[C@@H]2C(C)(C)[C@]12OC(C)=O` [PMA, Phorbol myristoyl acetate], for which the “IL-10 mRNA” value in the data set on U937 cells [4] (PMA 2×10^-7 M as differentiating agent) is listed as “increased”. Further, the “TNFα mRNA” value with U937 cells [4] (differentiation with the agent) is “increased”.
With `CCCCOc1cc(CC2CNC(=O)N2)ccc1OC` (stereo not shown) [Ro-20-1724, 4-[3-butoxy-4-methoxybenzyl]-2-imidazolidinone], in the data set on type IV PDE, the IC50 is 2000 nM.
On to `COc1ccc(C2CNC(=O)C2)cc1OC1CCCC1` (stereo not shown) [rolipram, 4-[3-cyclopentyloxy-4-methoxyphenyl]-2-pyrrolidinone], for which, in the data set on type IV PDE, the IC50 is 800 nM.
With `Cn1c(=O)c2[nH]cnc2n(C)c1=O` [theophylline], in the data set on type IV PDE (non-selective inhibitor compared with type IV selective rolipram), the “times less effective than rolipram” value is recorded as 30 times.

B1: GM-CSF: Murine Granulocyte macrophage colony stimulating factor from Peprotech, catalog number 315-03 (protein, UniProt P01587 18-141, looked up)
Granulocyte-macrophage …: APTRSPITVTRPWKHVEAIKEALNLLDDMPVTLNEEVEVVSNEFSFKKLTCVQTRLKIFEQGLRGNFTKLKGALNMTASYYQTYCPPTPETDCETQVTTYADFIDSLKTFLTDIPFECKKPGQK
Consider B1, for which the “solubility in aqueous solution” value in data set [5] is recorded as “Freely soluble”.
